Where only a bound is given, the exact number is not on record here.

Test [1] deals with BCL-2 (Homo sapiens, UniProt P10415). Description: TR-FRET binding affinity assay, BCL-2. Here is the method:
TR-FRET-binding affinity assays were performed for BCL-2, BCL-XL, and MCL-1 in 4.52 mM monobasic potassium phosphate, 15.48 mM dibasic potassium phosphate, 1 mM sodium EDTA, 0.05% Pluronic F-68 detergent, 50 mM sodium chloride, and 1 mM DTT (pH 7.5) as described previously for BCL-XL.[6] For MCL-1 assays, GST-tagged MCL-1 (1 nM) was mixed with 100 nM f-Bak, 1 nM Tb-labeled anti-GST antibody, and compound at room temperature (RT) for 60 min. Fluorescence was measured on an Envision plate reader (Perkin-Elmer, Waltham, MA, USA) using a 340/35 nm excitation filter and 520/525 (f-Bak) and 495/510 nm (Tb-labeled anti-GST antibody) emission filters.
(In general: In TR-FRET formats the signal depends on donor and acceptor labels being close together.)

Test [2] concerns the target T1, MCL-1–NOXA interactions (Homo sapiens, UniProt Q07820).
T1 construct: expressed in transfected cells; host or cells: HeLa cells stably expressing a GAL4-luciferase reporter
Nature of the test: Mammalian two-hybrid assay, MCL-1–NOXA, HeLa cells. The conditions noted are these: 24 h, luciferase two-hybrid. It counts as cell-based. How it is done: (a) H929 cells were treated with increasing concentrations of A-1210477 for 4 h. […] All data represent the mean of triplicate experiments, with error bars indicating the S.D. (b) Quantitative measurement of protein–protein interactions using a luciferase-based mammalian two-hybrid assay. […] All data represent the means of triplicate experiments, with error bars indicating the S.Ds.
HeLa cells stably expressing a GAL4-luciferase reporter were seeded into 10 cm dishes at 5 × 10^5 cells per plate. In all, 24 μg of a plasmid expressing both the ‘bait' and ‘prey' fusion proteins (GAL4DBD-BIM and VP16AD-BCL-2, GAL4DBD-BCL-XL and VP16AD- BCL-XS, or GAL4DBD-MCL-1 and VP16AD-NOXA, respectively) were mixed with 1.5 ml OptiMEM (Invitrogen). Separately, 24 μl Lipofectamine 2000 (Invitrogen) were mixed with 1.5 ml OptiMEM. Both solutions were incubated for 5 min (RT) and then mixed together for 20 min. Three milliliters of the mixture was added to cells in 12 ml culture medium lacking antibiotics, incubated at 37 °C for 24 h, and then transferred to 96-well plates at 20 000 cells per well. Compounds were added in half-log dilutions, starting from 1 μM and ending at 0.0001 μM for 24 h, and luciferase activity was assessed using ONE-Glo reagent (Promega). All data were plotted as the percentage of complex remaining relative to untreated controls.

Test [3] deals with H2110 cells. Nature of the test: Cell viability, H2110 cells. It counts as cell-based, human. How it is done: (§1) Figure 5 A-1210477 kills MCL-1-dependent NSCLC cancer cell lines. NSCLC cell lines (a) H2110 or (c) H23 were transfected with a construct expressing the MCL1 CDS tagged with a Flag epitope or empty control vector. These cells were subsequently transfected with siRNAs targeting the MCL1 CDS, the MCL1 3′ UTRa or UTRb, or a scrambled control sequence. Cell viability was assessed 72 h later with MCL-1 and Flag immunoblots performed in parallel. (b) H2110 or (d) H23 cells were treated with increasing concentrations of A-1210477 for 72 h before assessing cell viability.
(§2) Adherent cell lines were seeded at 50 000 cells per well in 96-well plates and treated for 48 h with compounds diluted in half-log steps starting at 30 μM and ending at 0.001 μM. Multiple myeloma cell lines were seeded at 15 000–20 000 cells per well and treated similarly. Effects on proliferation and viability were determined using CellTiter-Glo reagent from Promega (Madison, WI, USA) according to the manufacturer's instructions. IC50 values were determined by non-linear regression analysis of the concentration response data.

Test [4] relates to H23 cells. Nature of the test: Cell viability, H23 cells. It counts as cell-based, human. Here is the method:
as §1, §2

For test [5], the system named is OPM-2 cells. Description: Navitoclax / A-1210477 combination cell viability, OPM-2 cells. It counts as cell-based. The conditions noted are these: OPM-2, 48 h. How it is done: Figure 6 A-1210477 synergizes with navitoclax to kill hematological and solid tumor cell lines. BxPC-3, EJ-1, H23, and OPM-2 cells were treated with increasing concentrations of navitoclax in the presence or absence of increasing concentrations of A-1210477 for 48 h before assessing cell viability. All data points represent the means of triplicate experiments, with error bars indicating the S.E.M. TEXT PRINTED IN THE PICTURE: A-1210477 + navitoclax: Bliss sum (BxPC-3): 716; Bliss sum (EJ-1): 464; Bliss sum (H23): 76; Bliss sum (OPM-2): 946 DOUBTS OF THE COPYIST ABOUT THIS PICTURE: The Bliss sums apply to the combination of A-1210477 and navitoclax. The picture prints the two names separately (legend heading and axis title), not as one joined label.
as §2

The target of test [6] is MCL-1 (Homo sapiens, UniProt Q07820). Description: MCL-1 protein levels by immunoblotting in HCC-1806 cells. It counts as cell-based. Further details: endogenous in cells; host or cells: HCC-1806. The conditions noted are these: immunoblot. Here is the method: Figure 1 MCL-1 levels are elevated in cancer cells after treatment with MCL-1-binding small molecules. (a) H929 multiple myeloma cells were treated for 4 h with 10 μM A-1210477 before immunopreciptating MCL-1. […] A control H929 lysate was run in lane 1, and an immunoprecipitation with a non-specific antibody (Ig) was run in lane 2. The positions of molecular weight markers (specified in kiloDaltons) are indicated on the left. (b) HCC-1806 breast cancer cells were incubated with increasing concentrations of A-1210477 (0.1, 0.5, 1, 5, 10, 15, or 20 μM) or bortezomib (2, 10, or 50 nM) for 8 h before assessing MCL-1 and NOXA levels by immunoblotting. β-Actin was probed as a protein loading control. The lower graph depicts reverse transcriptase-PCR quantification of MCL1 mRNA from HCC-1806 cells treated for 8 h with similar concentrations of A-1210477. (c) HCC-1806 cells were incubated with increasing concentrations (0.1, 0.5, 1, 5, 10, and 20 μM) of A-954248, A-962653, or A-1248767 for 24 h before assessing MCL-1 and BCL-XL levels by immunoblotting. β-Actin was probed as a protein loading control
Chain of MCL-1 (Q07820 whole entry): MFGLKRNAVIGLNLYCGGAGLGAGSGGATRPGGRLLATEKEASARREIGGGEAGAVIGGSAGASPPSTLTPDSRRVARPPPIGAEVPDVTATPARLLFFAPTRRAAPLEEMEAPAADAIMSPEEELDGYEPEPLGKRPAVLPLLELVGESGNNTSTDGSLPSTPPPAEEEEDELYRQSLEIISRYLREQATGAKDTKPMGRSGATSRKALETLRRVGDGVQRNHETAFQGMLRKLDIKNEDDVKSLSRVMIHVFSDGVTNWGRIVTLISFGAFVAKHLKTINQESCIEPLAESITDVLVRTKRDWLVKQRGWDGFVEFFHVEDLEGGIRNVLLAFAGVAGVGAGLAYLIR
Cells were scraped into cold PBS, pelleted, and then resuspended in 100–200 μl ice-cold insect cell lysis buffer supplemented with protease inhibitors (BD Biosciences Pharmingen, San Diego, CA, USA). Cells were lysed by sonication, and the debris was cleared in a microcentrifuge. […]

T1 sequence (Q07820 whole entry, the tested form may be a part): as the sequence (Q07820 whole entry) above
Chain of BCL-2 (P10415 whole entry): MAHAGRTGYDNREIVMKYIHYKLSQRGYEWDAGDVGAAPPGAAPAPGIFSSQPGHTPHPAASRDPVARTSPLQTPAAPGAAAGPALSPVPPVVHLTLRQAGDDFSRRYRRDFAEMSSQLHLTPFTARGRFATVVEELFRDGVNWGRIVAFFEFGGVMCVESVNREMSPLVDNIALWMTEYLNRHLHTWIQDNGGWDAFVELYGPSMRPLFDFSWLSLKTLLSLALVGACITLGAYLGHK

In the case of `Cc1nn(C)c(COc2ccc(N3CCN(S(=O)(=O)N(C)C)CC3)cc2)c1-c1cccc2c(CCCOc3cccc4ccccc34)c(C(=O)O)n(CCN3CCOCC3)c12` [A-1210477], the affinity in test [1] corresponds to a Ki of 0.132 µM. The IC50 in test [2] was ~1 µM; in test [3] (H2110), < 10 µM; in test [4] (H23), < 10 µM. For the same compound, the EC50 was 5.3 µM in test [3] (H2110, 72 h) and 7.2 µM in test [4] (H23, 72 h). Moreover, the potentiation of navitoclax result in test [5] was “substantially shifted the dose–response curve of navitoclax”. For the same compound, in test [6] (0.1-20 μM), the “effect on MCL-1 protein levels” value is “triggered MCL-1 elevation”. Also, the “lowest concentration at which increases in MCL-1 protein could be observed” value in test [6] (8 h or 24 h) was determined as 0.5 µM.

One may read the Ki as the equilibrium dissociation constant of an inhibitor or competing ligand from its target. A higher Ki goes with weaker binding. By IC50 is commonly meant the concentration at which inhibition is half-maximal. By EC50 is commonly meant the concentration at which the effect is half-maximal.

For the origin of these results see article PMC4669759 (Cell Death & Disease, 2015).
